Values joined by “and” are separate entries in the source; they are usually repeats but may differ in a detail not shown here. Identical values can stand only once.
Key:
[1] = tested on: AAD1 (v2)-transformed T1 Arabidopsis; experiment: T1 Arabidopsis response to postemergence herbicide, % visual injury 2 WAT: native AAD1 (v2) transformants; type: in vivo, Arabidopsis thaliana; details: for % Injury Ave / individuals with 20-40% injury / individuals with <20% injury / individuals with >40% injury: Native AAD1 (v2) gene, 2 WAT
Method: Freshly harvested T1 seed (transformed with native [AAD1 (v2)] or plant optimized [AAD1 (v3)] gene) was allowed to dry for 7 days at room temperature. T1 seed was sown in 26.5×51-cm germination trays (T.O. Plastics Inc., Clearwater, Minn.), each receiving a 200 mg aliquots of stratified T1 seed (˜10,000 seed) that had previously been suspended in 40 ml of 0.1% agarose solution and stored at 4° C. for 2 days to complete dormancy requirements and ensure synchronous seed germination.
Sunshine Mix LP5 (Sun Gro Horticulture Inc., Bellevue, Wash.) was covered with fine vermiculite and subirrigated with Hoagland's solution until wet, then allowed to gravity drain. Each 40 ml aliquot of stratified seed was sown evenly onto the vermiculite with a pipette and covered with humidity domes (KORD Products, Bramalea, Ontario, Canada) for 4-5 days. Domes were removed 1 day prior to initial transformant selection using glufosinate postemergence spray (selecting for the co-transformed PAT gene).
Five to six days after planting (DAP) and again 10 DAP, T1 plants (cotyledon and 2-4-1f stage, respectively) were sprayed with a 0.2% solution of Liberty herbicide (200 g ai/L glufosinate, Bayer Crop Sciences, Kansas City, Mo.) at a spray volume of 10 ml/tray (703 L/ha) using a DeVilbiss compressed air spray tip to deliver an effective rate of 280 g ai/ha glufosinate per application. Survivors (plants actively growing) were identified 5-7 days after the final spraying and transplanted individually into 3-inch pots prepared with potting media (Metro Mix 360). Transplanted plants were covered with humidity domes for 3-4 days and placed in a 22° C. growth chamber as before. Domes were subsequently removed and plants moved to the greenhouse (22+5° C., 50+30% RH, 14 h light:10 dark, minimum 500 μE/m^2s^1 natural+supplemental light) at least 1 day prior to testing for the ability of AAD1 (v3) (plant optimized gene) or AAD1 (v2) (native microbial gene) to provide phenoxy auxin herbicide resistance.
Random individual T1 plants selected for glufosinate resistance above were confirmed for expression of the PAT protein using a PAT ELISA kit (Part no. 7000045, Strategic Diagnostics, Inc., Newark, Del.) to non-destructively confirm fidelity of selection process (manufacturer's protocol). Plants were then randomly assigned to various rates of phenoxy herbicides (dichlorprop or 2,4-D). […] Elevated rates were applied in subsequent trials (50, 200, 800, or 3200 g ae/ha).
All auxin herbicide applications were made using the DeVilbiss sprayer as described above to apply 703 L/ha spray volume (0.4 ml solution/3-inch pot) or applied by track sprayer in a 187 L/ha spray volume. […] Dichlorprop used was technical grade (Sigma, St. Louis, Mo.) dissolved in DMSO and diluted in water (<1% DMSO final concentration). As herbicide rates increased beyond 800 g ae/ha, the pH of the spray solution became exceedingly acidic, burning the leaves of young, tender Arabidopsis plants and complicating evaluation of the primary effects of the herbicides. It became standard practice to apply these high rates of phenoxy herbicides in 200 mM Tris buffer (pH 9.0) to a final pH of ˜7-8.
Table 16. […] Response is presented in terms of % visual injury 2 WAT. […] Since each T1 is an independent transformation event, one can expect significant variation of individual T1 responses within a given rate. An arithmetic mean and standard deviation is presented for each treatment. The range in individual response is also indicated in the last column for each rate and transformation. PAT/Cry1F-transformed Arabidopsis served as an auxin-sensitive transformed control. Wildtype Arabidopsis is untransformed.

[2] = tested on: Agrostis palustris var. Pencross; experiment: Bentgrass plate test bioassay for herbicide degradation; type: in vivo; details: AAD1 (v1) extract
Method: Because of the selective nature of the herbicides being tested (i.e., monocot plants controlled by AOPP herbicides and dicot plants controlled by auxinic herbicides), wildtype Agrostis palustris var. Pencross and Arabidopsis thaliana var. Columbia were used as monocot and dicot test species, respectively. Each species is amenable to germination and growth in small Petri dishes.
Twenty to thirty sterilized seeds for each test species used were added onto a sterile, solidified agar Plate Test Medium (PTM) [2.5 mM KNO3, 2.5 mM KH2PO4, […], 10 mM NaEDTA (pH 8.0), 2 mM MgSO4, 2 mM Ca(NO3) 2, 70 μM H3BO3, 14 μM MnCl2, 0.5 μM CuSO4, 1 μM ZnSO4, 0.2 μM NaMoO4.2H2O, 10 μM NaCl, 10 nM CoCl2.H2O, 0.8% (w/v) sucrose, 0.4% agarose (w/v)] for bioassay in 60×15-mm Petri dishes (Falcon 1007). PTM was additionally modified by adding up to six rates of test herbicide standards or herbicide-enzyme test solution dilutions such that the four-fold concentration increments covered a rate range of three orders of magnitude with the GR50 rate (50% growth reduction) approximately in the center of the range.
For herbicide-enzyme test solutions, the maximal concentration was determined based on the nominal concentration before any subsequent enzymatic degradation would occur. Seeds were evenly spread by adding 3 ml of melted PTM of the same composition, swirling, and allowing to solidify. Plates were sealed and maintained under sterile conditions in a low light growth chamber (24 h day^−1, 100 μE/m^2s^1, 23° C.) for 7 days. Root length or root+shoot length were measured for five randomly chosen Arabidopsis and bentgrass plants, respectively, average mean length (percent of untreated control) vs. nominal herbicide concentration and GR50 determined.

[3] = tested on: callus event 3404-006; experiment: Dose response of AAD1 (v3) expressing maize callus event; type: cell-based; details: haloxyfop (Gallant Super) up to 400 nM
Method: Non-transformed donor Hi-II cell lines were pooled together, […]-treated without DNA, filtered onto GN6 medium at the rate of 6 ml per filter, and allowed to callus for 2-3 weeks at 28° C. Approximately 200 mg of callused suspension tissue was transferred per treatment to selection media in 60×20 mm plates containing 30, 100 or 300 nM R-haloxyfop acid. Three replicates were used per concentration. A control medium containing 1 mg/L bialaphos (from Herbiace commercial formulation, Meiji Seika, Japan), GN6 (1H), was also included for comparison. Callus was removed after 2 weeks, weighed, and transferred to fresh media of the same concentration for another 2 weeks. After a total of 4 weeks elapsed time, tissue was removed, weighed a final time, and then discarded.
A smaller subset of these events was assessed in dose-response studies in comparison to a non-transformed control. A range of concentrations of haloxyfop (from Gallant Super formulation), up to 400 nM, were tested.

| Compound | T1 plants surviving uninjured (<20% visual injury) ([1]; AAD1 (v2), 200 g ae/ha) | % Injury Ave ([1]; 50 g ae/ha) | individuals with 20-40% injury ([1]; 50 g ae/ha) | individuals with <20% injury ([1]; 50 g ae/ha) | individuals with >40% injury ([1]; 50 g ae/ha) | % Injury Ave ([1]; 200 g ae/ha) | individuals with 20-40% injury ([1]; 200 g ae/ha) | individuals with <20% injury ([1]; 200 g ae/ha) | individuals with >40% injury ([1]; 200 g ae/ha) | % Injury Ave ([1]; 800 g ae/ha) | individuals with 20-40% injury ([1]; 800 g ae/ha) | individuals with <20% injury ([1]; 800 g ae/ha) | individuals with >40% injury ([1]; 800 g ae/ha) | herbicidal activity after AAD1 (v1) treatment, bentgrass plate bioassay [2] | callus growth of event 3404-006 [3] |
| --- | --- | --- | --- | --- | --- | --- | --- | --- | --- | --- | --- | --- | --- | --- | --- |
| O=C(O)COc1ccc(Cl)cc1Cl [2,4-D, 2,4-dichlorophenoxyacetic acid] | 56% | 14.8% | 16 | 55 | 9 | 34% and 34.1% | 11 | 45 | 24 | 52.5% | 32 | 11 | 37 | – | – |
| CC(Oc1ccc(Oc2ncc(C(F)(F)F)cc2Cl)cc1)C(=O)O (stereo not drawn) [haloxyfop] | – | – | – | – | – | – | – | – | – | – | – | – | – | loss of herbicidal activity | no significant reduction in callus growth |

Reference: patent publication US10450549B2, “Aryloxyphenoxypropionate tolerance in turfrgass species and use of AAD1 as a selectable marker” (Dow AgroSciences, LLC, priority 2004, dated 2019)
